Key:
Format in all cases: cell-based, human
[1] = tested on: ERα interaction with IGF-1Rβ, Shc; AKT and MAPK; test: Non-genomic activation route, immunoblotting, KPL-3C
Protocol: FIG. 9-1 is a diagram illustrating that ERAP1-peptide treatment suppresses the non-genomic activation route. […] The cell lysate of the ERα-positive breast cancer cell lines shown in the figure was subjected to immunoblotting analysis using the antibodies shown in the figure. […] KPL-3C cells were treated with the ERAP1-peptide and/or E2 for 24 hours. Then the nuclear fraction was immunoprecipitated with anti-ERα antibody.
FIG. 9-2 is a diagram illustrating that ERAP1-peptide treatment suppresses the non-genomic activation route. […] The cells (C and D) or BT474 cells (E) Were treated with the ERAP1-peptide. Then, the phosphorylation levels of Akt (C). MAPK (C) and ERα (D and E) were evaluated with Western blotting. The relative phosphorylation levels were quantified by densitometry analysis, and the ratio to the value at 0 hour for non-treated cells was calculated.

[2] = tested on: ERα interaction with IGF-1Rβ and Shc; test: E2-independent non-genomic activation route via IGF-1Rβ, MCF-7; settings: 10 μM, 24 hours, cytoplasm fraction
Protocol: FIG. 15 is a diagram illustrating the effects of the ERAP1-peptide on E2-independent cell functions. […] MCF-7 cells were treated with the ERAP1-peptide in each concentration (1, 3, 5 and 10 μM) or 10 nM tamoxifen as a positive control for 24 hours. […] MCF-7 cells were stimulated with 10 μM ERAP1-peptide treatment only, 10 nM E2 treatment only, or 10 μM ERAP1-peptide treatment and immediately 10 nM E2 for 24 hours, and the cytoplasm fraction was isolated from each of the treated cells. Then, the cytoplasm fraction was immunoprecipitated with anti-ERα antibody. Furthermore, with respect to the obtained sample, Western blotting analysis was performed using the antibodies shown in the figure.
MCF-7 cells were subjected to a treatment of 10 μM ERAP1-peptide alone, stimulation with 10 nM E2 alone, and co-stimulation with the ERAP1 peptide and E2, respectively, and after 24 hours, the cytoplasm fraction was isolated from the cells of each treatment. The cytoplasm fraction was precleaned using normal IgG and rec-Protein G Sepharose 4B (Zymed, San Francisco, Calif., USA) at 4° C. for 3 hours, and centrifuged, and then the supernatant was incubated in the presence of anti-ERα antibody at 4° C. for 6 hours. Then, the supernatant was added with rec-Protein G Sepharose 4B and incubated at 4° C. for 1 hour whereby to precipitate an antigen-antibody complex. […]

[3] = tested on: PHB2/REA localization in MCF-7 cells; test: Nuclear translocation of PHB2/REA (fractionation, immunoblotting, immunostaining); settings: for nuclear translocation of PHB2/REA, temporal: 1 hour to 24 hours after administration
Protocol: FIG. 3-1 is a diagram illustrating that ERAP1-peptide treatment promotes nuclear translocation of PHB2. […] MCF-7 cells were stimulated for 24 hours with 10 μM ERAP1-peptide and/or 10 nM E2. The cells were fractioned into mitochondria, cytoplasm, and nuclear fractions by specific gravity centrifugation. Then, each fraction was subjected to immunoblotting analysis using an anti-ERAP1 antibody and an anti-PHB2 antibody. PRDX3, α/β-Tublin (Tublin) and lamin B are markers for mitochondria, cytoplasm, and nuclear fractions, respectively (upper panel). The protein content of each fraction was evaluated with Coomassie-stained SDS-PAGE gel (lower panel). […] KPL-3C cells were treated for 24 hours with 10 μM HA-tagged ERAP1-peptide and/or 10 nM E2. Then, the cells were fractionated into cytoplasm and nuclear fractions by specific gravity centrifugation. Then, which fraction was immunoprecipitated with anti-ERα antibody, an anti-ERAP1 antibody or an anti-PHB2 antibody. Then, immunoblotting was performed with each antibody shown in the figure (an anti-ERAP1 antibody, an anti-ERα antibody, an anti-PHB2 antibody and an anti-HA antibody (Peptide)). α/β-Tubulin (Tubulin) and Lamin B are markers for cytoplasm and nuclear fractions, respectively.
FIG. 4-1 is a diagram illustrating that the ERAP1-peptide promotes nuclear translocation of PHB2. (A) The upper panel illustrates representative images of stained immune cells, showing the intracellular localization of PHB2. MCF-7 cells were treated with 10 μM ERAP1-peptide or ERAP1-scramble peptide. Subsequently, the cells were treated with 10 nM E2. After the immobilization, the cells were subjected to immunofluorescent staining using an anti-PHB2 antibody and DAPI (for discriminating the nucleus).
FIG. 4-2 is a diagram illustrating that the ERAP1-peptide promotes nuclear translocation of PHB2. (B) is a diagram illustrating the results of immunoblotting analysis by which the intracellular localization of PHB2 was detected, MCF-7 cells were treated with the ERAP1-peptide or the ERAP1-scramble peptide. Subsequently immediately, the cells were treated with 10 nM E2. The cells were fractionated into cytoplasm and nuclear fractions after 1 hour or 24 hours. Each fraction was immunoprecipitated with anti-ERα antibody, an anti-ERAP1 antibody or a PH82 antibody. […]
MCF-7 cells were seeded in an 8-well chamber (Laboratory-Tek II Chamber Slide System, Nalgen Nunc International, Naperville, Ill., USA) in 5×10^4 cells/well, and cultured under estrogen-free condition for 24 hours. […] The fluorescence image was obtained under Olympus IX71 microscope (Tokyo, Japan). […]

CSCC[C@H](NC(=O)[C@H](CCC(N)=O)NC(=O)[C@H](CCCNC(=N)N)NC(=O)[C@H](CCCNC(=N)N)NC(=O)[C@H](CCCNC(=N)N)NC(=O)[C@H](CCCNC(=N)N)NC(=O)[C@H](CCCNC(=N)N)NC(=O)[C@H](CCCNC(=N)N)NC(=O)[C@H](CCCNC(=N)N)NC(=O)[C@H](CCCNC(=N)N)NC(=O)[C@H](CCCNC(=N)N)NC(=O)[C@H](CCCNC(=N)N)NC(=O)[C@@H](N)CCCNC(=N)N)C(=O)N[C@@H](CC(C)C)C(=O)N[C@@H](CO)C(=O)N[C@@H](CC(=O)O)C(=O)N[C@@H](CC(C)C)C(=O)N[C@H](C(=O)N[C@@H](CC(C)C)C(=O)N[C@@H](CCC(N)=O)C(=O)N[C@@H](CC(C)C)C(=O)N[C@@H](CCCNC(=N)N)C(=O)N[C@@H](CCC(N)=O)C(=O)N[C@@H](CCCNC(=N)N)C(=O)O)[C@@H](C)O [ERAP1-peptide]
activations of AKT and MAPK [1]: activations of AKT and MAPK were suppressed
binding of ERα and Shc and of ERα and IGF-1Rβ [1]: the binding of ERα and Shc and the binding of ERα and IGF-1Rβ were inhibited
interaction of IGF-1Rβ and Shc with ERα, absence of E2 [2]: each interaction of IGF-1Rβ and Shc, and ERα was inhibited
nuclear translocation of PHB2/REA, temporal [3]: Prompt nuclear translocation of inherent PHB2/REA at 1 hour
translocation of PHB2/REA from the cytoplasm into the nucleus ([3]; E2 and peptide at the same time, 10 μM, 24 hours): remarkable translocation of PHB2/REA from the cytoplasm into the nucleus

DRQLQLSTLQRML (SEQ ID NO: 28) (ERAP1-scramble peptide) [reference compound]
nuclear translocation of PHB2/REA, temporal [3]: not recognized

— US9725490B2, “ERAP1-derived peptide and use thereof” (TOKUSHIMA UNIVERSITY, priority 2011, dated 2017)
